Source: patent US7902361B2, “Pyrimidin-4-yl-3, 4-thione compounds and their use in therapy” (Cyclacel Limited, priority 2003, dated 2011)

Columns and labels:
aurora A = molecular target: T1, aurora A (Homo sapiens, UniProt O14965); assay: Kinase assay aurora A; type: biochemical; conditions: Ki calculated (Cheng-Prusoff) from experimentally determined IC50 and Km,ATP; read-out: Kinase Inhibition Ki Aurora A
T1 sequence (O14965 1-403): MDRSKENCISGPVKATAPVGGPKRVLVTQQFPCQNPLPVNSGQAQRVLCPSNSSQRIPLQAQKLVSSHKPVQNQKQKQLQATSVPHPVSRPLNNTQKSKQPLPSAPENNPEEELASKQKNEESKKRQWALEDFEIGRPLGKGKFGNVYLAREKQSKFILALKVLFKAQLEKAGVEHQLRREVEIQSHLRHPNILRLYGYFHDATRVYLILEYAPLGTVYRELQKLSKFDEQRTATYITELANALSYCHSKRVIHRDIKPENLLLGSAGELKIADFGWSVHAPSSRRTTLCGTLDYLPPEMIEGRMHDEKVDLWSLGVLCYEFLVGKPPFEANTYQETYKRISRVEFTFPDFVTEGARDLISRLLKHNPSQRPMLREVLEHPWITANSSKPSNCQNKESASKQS
Description: The compounds from the examples above were investigated for their ability to inhibit the enzymatic activity of various protein kinases. This was achieved by measurement of incorporation of radioactive phosphate from ATP into appropriate polypeptide substrates. Recombinant protein kinases and kinase complexes were produced or obtained commercially. Assays were performed using 96-well plates and appropriate assay buffers (typically 25 mM β-glycerophosphate, 20 mM MOPS, 5 mM EGTA, 1 mM DTT, 1 mM […], pH 7.4), into which were added 2-4 μg of active enzyme with appropriate substrates. […] Reactions were stopped on ice, followed by filtration through p81 filterplates or GF/C filterplates (Whatman Polyfiltronics, Kent, UK). After washing 3 times with 75 mM aq orthophosphoric acid, plates were dried, scintillant added and incorporated radioactivity measured in a scintillation counter (TopCount, Packard Instruments, Pangbourne, Berks, UK). Compounds for kinase assay were made up as 10 mM stocks in DMSO and diluted into 10% DMSO in assay buffer.

CDK9/cyclin T1 = CDK9/cyclin T1 (Homo sapiens, UniProt P50750); assay: Kinase assay CDK9/cyclin T1; type: biochemical; conditions: Ki calculated (Cheng-Prusoff) from experimentally determined IC50 and Km,ATP; read-out: Kinase Inhibition Ki CDK9 - cyclin T1
Sequence of CDK9/cyclin T1 (P50750 whole entry, species assumed): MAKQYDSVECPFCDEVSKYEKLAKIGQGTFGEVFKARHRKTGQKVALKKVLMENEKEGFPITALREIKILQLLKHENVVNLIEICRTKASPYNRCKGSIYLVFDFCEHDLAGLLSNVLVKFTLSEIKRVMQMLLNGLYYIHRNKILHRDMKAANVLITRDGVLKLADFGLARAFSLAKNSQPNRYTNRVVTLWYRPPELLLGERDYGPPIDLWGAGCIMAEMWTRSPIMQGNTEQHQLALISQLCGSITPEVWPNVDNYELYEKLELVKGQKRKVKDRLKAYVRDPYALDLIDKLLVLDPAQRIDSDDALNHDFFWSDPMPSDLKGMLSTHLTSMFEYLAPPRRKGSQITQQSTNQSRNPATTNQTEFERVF
Sequence of CDK9/cyclin T1 (O60563 whole entry partner, species assumed): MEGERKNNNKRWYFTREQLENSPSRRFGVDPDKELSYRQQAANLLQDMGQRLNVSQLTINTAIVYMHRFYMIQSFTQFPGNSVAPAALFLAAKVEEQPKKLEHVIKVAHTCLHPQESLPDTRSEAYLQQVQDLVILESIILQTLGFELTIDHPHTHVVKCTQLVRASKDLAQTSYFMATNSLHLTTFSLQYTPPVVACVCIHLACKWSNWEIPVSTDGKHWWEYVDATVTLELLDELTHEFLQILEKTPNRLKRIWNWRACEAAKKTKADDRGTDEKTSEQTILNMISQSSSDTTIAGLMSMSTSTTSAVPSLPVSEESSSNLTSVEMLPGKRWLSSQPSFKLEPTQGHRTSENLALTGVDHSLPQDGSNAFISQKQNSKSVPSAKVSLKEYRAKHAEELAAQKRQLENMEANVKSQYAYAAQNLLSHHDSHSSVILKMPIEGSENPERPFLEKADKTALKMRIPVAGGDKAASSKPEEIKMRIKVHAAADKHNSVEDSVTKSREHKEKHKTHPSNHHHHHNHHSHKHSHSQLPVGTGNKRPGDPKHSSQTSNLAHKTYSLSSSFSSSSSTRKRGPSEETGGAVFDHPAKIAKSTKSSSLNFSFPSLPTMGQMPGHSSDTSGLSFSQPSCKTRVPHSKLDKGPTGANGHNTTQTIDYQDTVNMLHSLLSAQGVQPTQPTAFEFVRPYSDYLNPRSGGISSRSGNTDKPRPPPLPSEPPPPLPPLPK
Summary of the method: (§1)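 Radiometric filter assays used recombinant kinases or complexes (2-4 μg) with appropriate polypeptide substrates in pH 7.4 β-glycerophosphate/MOPS buffer. Reactions were started with 15 mM MgCl2 and 100 μM ATP containing [γ-32P]-ATP and run at 30° C. Phosphate incorporated into substrate was counted by scintillation after washing.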

HIV-1 = HIV-1 in human PBMCs, seven days following infection
Description: Representative compounds of the present invention were tested for antiviral activity against HIV-1 in human peripheral blood mononuclear cells (PBMCs) using the clinical paediatric HIV strains RoJo or WeJo. PBMCs were cultured under conditions which promote cell survival and HIV replication.
Fresh PBMCs, seronegative for HIV and HBV, were isolated from screened donors (Interstate Blood Bank, Inc. Memphis, Tenn.). Cells were pelleted/washed 2-3 times by low speed centrifugation and re-suspension in PBS to remove contaminating platelets. […] Banded PBMCs were gently aspirated from the resulting interface and subsequently washed with PBS by low speed centrifugation. […] The cells were allowed to incubate at 37° C. […] IL-2 is included in the culture medium to maintain the cell division initiated by the PHA mitogenic stimulation. PBMCs were maintained in this with bi-weekly medium changes until used in the assay protocol. Cells were kept in culture for a maximum of two weeks before being deemed too old for use in assays and discarded. Monocytes were depleted from the culture as the result of adherence to the tissue culture flask.
For the standard PBMC assay, PHA-P stimulated cells from at least two normal donors were pooled, diluted and plated in the interior wells of a 96-well round bottom microplate. Pooling of mononuclear cells from more than one donor was used to minimise the variability observed between individual donors, which results from quantitative and qualitative differences in HIV infection and overall response to the PHA and IL-2 of primary lymphocyte populations. Each plate contained virus/cell control wells (cells plus virus), experimental wells (drug plus cells plus virus) and compound control wells (drug plus media without cells, necessary for MTS monitoring of cytotoxicity). Since HIV-1 is not cytopathic to PBMCs, this allows the use of the same assay plate for both antiviral activity and cytotoxicity measurements. Test drug dilutions were prepared in microtiter tubes and each concentration was placed in appropriate wells using the standard format. A predetermined dilution of virus stock was placed in each test well (final MOI≅0.1). The PBMC cultures were maintained for seven days following infection at 37° C., 5% CO2 After this period, cell-free supernatant samples were collected for analysis of reverse transcriptase activity and/or HIV p24 content. Following removal of supernatant samples, compound cytotoxicity was measured by addition of MTS to the plates for determination of cell viability. Wells were also examined microscopically and any abnormalities were noted.
Tritiated thymidine triphosphate (^3H-TTP, 80 Ci/mmol, NEN) was received in 1:1 dH2O:Ethanol at 1 mCi/mL. Poly rA:oligo dT template:primer (Pharmacia) was prepared as a stock solution, followed by aliquoting and storage at −20° C. The RT reaction buffer was prepared fresh on a daily basis. The final reaction mixture was prepared by combining ^3H-TTP, dH2O, poly rA:oligo dT stock and reaction buffer. This reaction mixture was placed in a round bottom microtiter plate and supernatant containing virus was added and mixed. The plate was incubated at 37° C. for 60 minutes. Following incubation, the reaction volume was spotted onto DE81 filter-mats (Wallac), in a sodium phosphate buffer or 2×SSC (Life Technologies). Next they were washed in distilled water, in 70% ethanol, and then dried. Incorporated radioactivity (counts per minute, CPM) was quantified using standard liquid scintillation techniques.

CDK2/cyclin E = CDK2/cyclin E (Homo sapiens, UniProt P24941); assay: Kinase assay CDK2/cyclin E; type: biochemical; conditions: Ki calculated (Cheng-Prusoff) from experimentally determined IC50 and Km,ATP; read-out: Kinase Inhibition Ki CDK2 - cyclin E
Summary of the method: (§2)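 Radiometric assays measured transfer of radioactive phosphate from ATP onto polypeptide substrates, using 2-4 μg recombinant active enzyme in buffer typically containing 25 mM β-glycerophosphate, 20 mM MOPS, 5 mM EGTA, 1 mM DTT and 1 mM Na3VO3 at pH 7.4. Reactions were stopped on ice, filtered on P81 or GF/C plates and washed with orthophosphoric acid. Incorporated radioactivity was scintillation-counted.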

CDK7/cyclin H = CDK7/cyclin H (Homo sapiens, UniProt P50613); assay: Kinase assay CDK7/cyclin H; type: biochemical; conditions: Ki calculated (Cheng-Prusoff) from experimentally determined IC50 and Km,ATP; read-out: Kinase Inhibition Ki CDK7 - cyclin H
Sequence of CDK7/cyclin H (P50613 whole entry, species assumed): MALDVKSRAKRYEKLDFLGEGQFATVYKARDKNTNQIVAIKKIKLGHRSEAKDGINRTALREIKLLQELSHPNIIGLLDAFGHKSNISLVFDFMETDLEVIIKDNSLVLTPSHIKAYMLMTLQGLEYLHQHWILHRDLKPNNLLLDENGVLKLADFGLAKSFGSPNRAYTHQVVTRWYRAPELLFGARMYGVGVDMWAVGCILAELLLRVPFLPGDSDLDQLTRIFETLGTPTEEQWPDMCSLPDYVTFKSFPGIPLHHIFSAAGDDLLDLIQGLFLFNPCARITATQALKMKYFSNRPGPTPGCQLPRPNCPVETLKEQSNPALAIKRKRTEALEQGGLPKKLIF
Sequence of CDK7/cyclin H (P51946 whole entry partner, species assumed): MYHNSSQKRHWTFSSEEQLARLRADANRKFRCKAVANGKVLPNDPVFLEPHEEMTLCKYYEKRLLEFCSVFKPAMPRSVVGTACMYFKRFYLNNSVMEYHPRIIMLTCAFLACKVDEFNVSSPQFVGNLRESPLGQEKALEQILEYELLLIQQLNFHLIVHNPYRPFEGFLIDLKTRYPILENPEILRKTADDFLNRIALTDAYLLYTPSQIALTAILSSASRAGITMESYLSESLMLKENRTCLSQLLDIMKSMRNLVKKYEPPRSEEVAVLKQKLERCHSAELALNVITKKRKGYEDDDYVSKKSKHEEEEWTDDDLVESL
Summary of the method: as §1

CDK4/cyclin D1 = CDK4/cyclin D1 (Homo sapiens, UniProt P11802); assay: Kinase assay CDK4/cyclin D1; type: biochemical; conditions: Ki calculated (Cheng-Prusoff) from experimentally determined IC50 and Km,ATP; read-out: Kinase Inhibition Ki CDK4 - cyclin D1
Sequence of CDK4/cyclin D1 (P11802 whole entry, species assumed): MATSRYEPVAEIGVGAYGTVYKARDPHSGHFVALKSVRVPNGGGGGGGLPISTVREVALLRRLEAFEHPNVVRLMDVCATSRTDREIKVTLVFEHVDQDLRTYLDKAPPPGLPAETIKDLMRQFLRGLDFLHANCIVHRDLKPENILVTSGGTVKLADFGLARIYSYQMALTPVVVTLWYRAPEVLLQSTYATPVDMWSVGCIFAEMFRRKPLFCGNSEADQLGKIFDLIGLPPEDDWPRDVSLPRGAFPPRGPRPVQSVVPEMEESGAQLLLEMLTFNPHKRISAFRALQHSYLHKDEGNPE
Sequence of CDK4/cyclin D1 (P24385 whole entry partner, species assumed): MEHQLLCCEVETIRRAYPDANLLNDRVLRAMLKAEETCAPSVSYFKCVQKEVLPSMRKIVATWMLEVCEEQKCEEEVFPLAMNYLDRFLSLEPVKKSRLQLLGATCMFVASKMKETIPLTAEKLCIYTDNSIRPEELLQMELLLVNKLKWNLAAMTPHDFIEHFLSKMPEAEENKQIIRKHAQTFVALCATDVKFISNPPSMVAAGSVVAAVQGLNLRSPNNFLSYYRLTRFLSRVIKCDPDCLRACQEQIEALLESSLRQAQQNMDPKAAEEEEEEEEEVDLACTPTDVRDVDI
Summary of the method: as §1

CDK1/cyclin B = CDK1/cyclin B (Homo sapiens, UniProt P06493); assay: Kinase assay CDK1/cyclin B (radioactive phosphate incorporation); type: biochemical; conditions: Ki calculated (Cheng-Prusoff) from experimentally determined IC50 and Km,ATP; read-out: Kinase Inhibition Ki CDK1 - cyclin B
Sequence of CDK1/cyclin B (P06493 whole entry, species assumed): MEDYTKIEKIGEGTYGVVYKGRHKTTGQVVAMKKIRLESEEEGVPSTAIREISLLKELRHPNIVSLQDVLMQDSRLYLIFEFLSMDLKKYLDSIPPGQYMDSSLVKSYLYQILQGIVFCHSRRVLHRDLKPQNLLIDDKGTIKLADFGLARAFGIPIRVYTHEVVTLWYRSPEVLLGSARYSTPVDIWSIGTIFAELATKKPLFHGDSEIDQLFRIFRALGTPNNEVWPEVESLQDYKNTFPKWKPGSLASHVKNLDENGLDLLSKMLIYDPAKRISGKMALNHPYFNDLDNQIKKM
Sequence of CDK1/cyclin B (P14635 whole entry partner, species assumed): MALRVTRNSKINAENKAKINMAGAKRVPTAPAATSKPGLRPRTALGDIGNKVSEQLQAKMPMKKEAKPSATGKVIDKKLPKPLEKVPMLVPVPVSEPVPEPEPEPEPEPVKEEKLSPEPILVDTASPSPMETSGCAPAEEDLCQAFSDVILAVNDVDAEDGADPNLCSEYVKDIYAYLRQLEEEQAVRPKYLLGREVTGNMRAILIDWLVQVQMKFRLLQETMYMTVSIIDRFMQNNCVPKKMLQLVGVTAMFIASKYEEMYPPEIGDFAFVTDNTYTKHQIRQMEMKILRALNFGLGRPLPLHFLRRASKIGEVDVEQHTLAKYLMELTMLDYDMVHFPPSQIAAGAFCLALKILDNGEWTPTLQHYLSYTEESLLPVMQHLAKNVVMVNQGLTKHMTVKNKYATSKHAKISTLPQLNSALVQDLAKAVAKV
Summary of the method: as §2

CDK2/cyclin A = CDK2/cyclin A (Homo sapiens, UniProt P24941); assay: Kinase assay CDK2/cyclin A; type: biochemical; conditions: Ki calculated (Cheng-Prusoff) from experimentally determined IC50 and Km,ATP; read-out: Kinase Inhibition Ki CDK2 - cyclin A
Summary of the method: as §2

GSK3β = molecular target: T2, GSK3β (Homo sapiens, UniProt P49841); assay: GSK3β in vitro kinase assay; type: biochemical; conditions: recombinant human GSK3β, 100 μM ATP
T2 construct: purchased New England Biolabs
T2 sequence (P49841 whole entry): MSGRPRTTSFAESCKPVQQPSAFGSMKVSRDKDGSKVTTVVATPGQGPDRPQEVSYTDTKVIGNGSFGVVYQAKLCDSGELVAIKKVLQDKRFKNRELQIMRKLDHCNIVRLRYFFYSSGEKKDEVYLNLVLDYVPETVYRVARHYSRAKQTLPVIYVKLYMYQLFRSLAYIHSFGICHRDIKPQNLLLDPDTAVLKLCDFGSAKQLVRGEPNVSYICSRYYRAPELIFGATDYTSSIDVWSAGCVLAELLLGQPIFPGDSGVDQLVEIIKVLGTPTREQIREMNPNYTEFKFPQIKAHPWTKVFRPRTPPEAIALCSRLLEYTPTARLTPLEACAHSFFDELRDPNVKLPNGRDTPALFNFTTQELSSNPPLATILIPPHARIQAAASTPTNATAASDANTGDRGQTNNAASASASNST
Description: Both isoforms of GSK3 (α and β) are involved in the regulation of glycogen synthase activity—key enzyme in the glycogen metabolism.
A 10-point titration was set up to determine the IC50 values of selected example compounds against GSK3β. Assays were performed using 96-well microtiter plates with a final volume of 25 μL per well. Each assay contained 1.5 units of GSK3β(New England Biolabs), 200 μM CREB phosphopeptide ([…]pSYR, Alta Biosciences), 20 mM Tris HCl pH7.5, 5 mM DTT, 15 mM MgCl2 supplemented with 100 μM ATP and 0.5 μCi of [γ-^32P] ATP plus or minus inhibitor in 2% DMSO. Assays were carried out for 30 minutes at 30° C. before stopping the reaction by the addition of an equal volume of 75 mM aqueous phosphoric acid. Samples were then spotted onto a p81 filterplate (Whatman) and a vacuum was applied. Wells were washed 3 times with 200 μL of dilute aqueous phosphoric acid before the addition of 50 μL Microscint 40 per well. Incorporation of radioactivity was determined on a Topcount microplate scintillation counter (Packard).

Structure (SMILES) | Ki (aurora A) [nM] | Ki (CDK9/cyclin T1) [nM] | anti-HIV activity based on TI (therapeutic index: TC50/IC50) (HIV-1) | Ki (CDK2/cyclin E) [nM] | Ki (CDK7/cyclin H) [nM] | Ki (CDK4/cyclin D1) [nM] | Ki (CDK1/cyclin B) [nM] | Ki (CDK2/cyclin A) [nM] | IC50 (GSK3β) [nM]
Cc1c(-c2ccnc(Nc3ccc(F)cc3)n2)sc(=O)n1C [Compound 2, 5-[2-(4-Fluoro-phenylamino)-pyrimidin-4-yl]-3,4-dimethyl-3H-thiazol-2-one] | 350 | 0.8 | Active |  |  |  |  |  | 
Cc1ccc(Nc2nccc(-c3sc(=O)n(C)c3C)n2)cc1[N+](=O)[O-] [Compound 11, 3,4-Dimethyl-5-[2-(4-methyl-3-nitro-phenylamino)-pyrimidin-4-yl]-3H-thiazol-2-one] |  | 0.4 | Active | 61 | 36 | 380 | 720 | 220 | 
Cc1cc(Nc2nccc(-c3sc(=O)n(C)c3C)n2)ccc1Cl [Compound 15, 5-[2-(4-Chloro-3-methyl-phenylamino)-pyrimidin-4-yl]-3,4-dimethyl-3H-thiazol-2-one] |  | 45 | Active | 580 |  | 9600 | 600 | 460 | 
Cc1c(-c2ccnc(Nc3cccc(C#N)c3)n2)sc(=O)n1C [Compound 16, 3-[4-(3,4-Dimethyl-2-oxo-2,3-dihydro-thiazol-5-yl)-pyrimidin-2-ylamino]-benzonitrile] |  | 1.9 | Active | 0.5 | 6.8 | 100 | 400 | 42 | 
Cc1ccc(Nc2nccc(-c3sc(=O)n(C)c3C)n2)cc1C(F)(F)F [Compound 21, 3,4-Dimethyl-5-[2-(4-methyl-3-trifluoromethyl-phenylamino)-pyrimidin-4-yl]-3H-thiazol-2-one] |  | 170 | Active | 190 | 220 |  | 2300 | 550 | 
CCn1c(C)c(-c2ccnc(Nc3cccc([N+](=O)[O-])c3)n2)sc1=O [Compound 23, 3-Ethyl-4-methyl-5-[2-(3-nitro-phenylamino)-pyrimidin-4-yl]-3H-thiazol-2-one] |  | 0.3 | Active | 16 | 1.4 | 870 | 290 | 62 | 
CCn1c(C)c(-c2ccnc(Nc3ccc(OC)nc3)n2)sc1=O [Compound 33, 3-Ethyl-5-[2-(6-methoxy-pyridin-3-ylamino)-pyrimidin-4-yl]-4-methyl-3H-thiazol-2-one] |  | 2.4 | Active | 50 | 23 | 35 | 30 | 760 | 
Cc1c(-c2ccnc(Nc3ccc(N4CCNCC4)cc3)n2)sc(=O)n1C [Compound 38, 3,4-Dimethyl-5-[2-(4-piperazin-1-yl-phenylamino)-pyrimidin-4-yl]-3H-thiazol-2-one] | 88 | 10 | Active | 180 | 38 | 50 | 470 | 300 | 
CCn1c(C)c(-c2ccnc(Nc3ccc(C)c(O)c3)n2)sc1=O [Compound 47, 3-Ethyl-5-[2-(3-hydroxy-4-methyl-phenylamino)-pyrimidin-4-yl]-4-methyl-3H-thiazol-2-one] | 53 | 3 |  | 15 | 17 | 1800 | 180 | 87 | 30.8
CC(=O)N1CCN(c2cccc(Nc3nccc(-c4sc(=O)n(C)c4C)n3)c2)CC1 [Compound 49, 5-{2-[3-(4-Acetyl-piperazin-1-yl)-phenylamino]-pyrimidin-4-yl}-3,4-dimethyl-3H-thiazol-2-one] | 110 | 30 |  | 1300 | 1100 | 9.7 | 930 | 3000 | 380
Cc1c(-c2ccnc(Nc3cccc(CNS(C)(=O)=O)c3)n2)sc(=O)n1C [Compound 55, N-{3-[4-(3,4-Dimethyl-2-oxo-2,3-dihydro-thiazol-5-yl)-pyrimidin-2-ylamino]-benzyl}-methane-sulfonamide] | 46 | 2.2 |  | 39 | 110 | 110 | 160 | 42 | 82
Cc1c(-c2ccnc(Nc3cccc(CNC(=O)c4ccccc4)c3)n2)sc(=O)n1C [Compound 57, N-{3-[4-(3,4-Dimethyl-2-oxo-2,3-dihydro-thiazol-5-yl)-pyrimidin-2-ylamino]-benzyl}-benzamide] | 160 | 1.6 |  | 52 | 1300 | 21 | 360 | 540 | 17.8
Cc1c(-c2ccnc(Nc3cccc(CNS(=O)(=O)C(F)(F)F)c3)n2)sc(=O)n1C [Compound 58, N-{3-[4-(3,4-Dimethyl-2-oxo-2,3-dihydro-thiazol-5-yl)-pyrimidin-2-ylamino]-benzyl}-C,C,C-trifluoro-methanesulfonamide] | 840 | 6.4 |  | 100 | 96 | 5100 | 1100 | 600 | 23.3
Cc1c(-c2ccnc(Nc3ccc(N4CCN(Cc5ccccc5)CC4)cc3)n2)sc(=O)n1C [Compound 69, 5-{2-[4-(4-Benzyl-piperazin-1-yl)-phenylamino]-pyrimidin-4-yl}-3,4-dimethyl-3H-thiazol-2-one] | 39 | 21 |  | 160 | 12 | 100 | 1700 | 950 | 96
Cc1c(-c2ccnc(Nc3ccc(S(=O)(=O)NCCO)cc3)n2)sc(=O)n1C [Compound 72, 4-[4-(3,4-Dimethyl-2-oxo-2,3-dihydro-thiazol-5-yl)-pyrimidin-2-ylamino]-N-(2-hydroxy-ethyl)-benzenesulfonamide] | 510 | 11 |  | 0.5 | 1200 | 830 | 5.4 | 2.9 | 8.3
